Antibody response and antibody titers data for three substances are collected here from EP0426314B1, “HIV related peptides” (VIRAL TECHNOLOGIES, INC., priority 1989, dated 1995).

In assay [1] the test system is sera from four Rhesus Monkeys given live HIV-1. Nature of the assay: ELISA of sera from Rhesus monkeys given live HIV-1 for antibodies to p17 peptides (Figure 5). The assay is classed as binding. The settings on record: result in words. The text has this: • Figure 1 is a schematic drawing illustrating the proposed orientation for the p17 gag protein of HIV; • Figure 2 is a chart depicting the primary amino acid sequences of HIV-1 p17 (strain HB10) and also of the p17 proteins of HIV-2 and SIV; • Figure 3 is another chart depicting the primary amino acid sequence of the peptides in p17; • Figure 4 is a graph plotting antibody titers of HIV p17 peptides in rabbits immunized with native HIV p17; and • Figure 5 is a bar graph illustrating the results of ELISA analysis of sera from 4 Rhesus monkeys exposed to live HIV antibodies to the p17 peptide fragments of this invention.
In another test, sera from four Rhesus Monkeys given live HIV-1 were also evaluated for antibodies to Peptides A, B, C, D and E and the results are shown in Figure 5. […] Sera from individuals who had been naturally exposed to the HIV virus and were seropositive for p17 were also evaluated.

The test system of assay [2] is antibodies of a rabbit immunized with native (intact) HIV p17. Nature of the assay: Antibody titers to p17 peptides in a rabbit immunized with native HIV p17 (Figure 4). The class given is binding. The settings on record: rabbit immunized with HPLC-purified native HIV p17, synthetic peptide analogs, result in words.

“Peptide A: p17 gag HIV protein fragment, positions 1-32, formula (II); sequence only in image I00003 (GARASVLSGGELDRWEKIRLRPGGKKKYKLKH; Matrix protein p17; UniProt P04591 2-33, looked up, fragment)”: in assay [1], the antibody response result was “strong antibody response in at least one of the challenged monkeys”.

Turning to “Peptide B: p17 gag HIV protein fragment, positions 33-50, formula (III); sequence only in image I00004 (IVWASRELERFAVNPGLL; Matrix protein p17; UniProt P04591 34-51, looked up, fragment)”, in assay [1], the antibody response entry was “strong antibody response in at least one of the challenged monkeys”.

On to “Peptide C: p17 gag HIV protein fragment, positions 51-84, formula (IV); sequence only in image I00005 (ETSEGCRQILGQLQPSLQTGSEELRSLYNTVATL; Matrix protein p17; UniProt P04591 52-85, looked up, fragment)”, for which the antibody titers result in assay [2] was “highest titers”. For the same substance, the antibody response result in assay [1] is “strong antibody response in at least one of the challenged monkeys”.
